We go through four molecules from paper PMC3648997 (Bioorganic & medicinal chemistry letters, 2013).

For data set [1], the target named is Keap1 Kelch domain (Homo sapiens, UniProt Q14145). Description: SPR solution competition assay. The data set is classed as binding.
Data set [2] can be described thus: Stability over 24 h. As to conditions: over a period of 24 h.
A short description of data set [3]: Glutathione reactivity. As to conditions: 50 μM glutathione, over 48 h.

Sequence of Keap1 Kelch domain (Q14145 321-609 limits assumed): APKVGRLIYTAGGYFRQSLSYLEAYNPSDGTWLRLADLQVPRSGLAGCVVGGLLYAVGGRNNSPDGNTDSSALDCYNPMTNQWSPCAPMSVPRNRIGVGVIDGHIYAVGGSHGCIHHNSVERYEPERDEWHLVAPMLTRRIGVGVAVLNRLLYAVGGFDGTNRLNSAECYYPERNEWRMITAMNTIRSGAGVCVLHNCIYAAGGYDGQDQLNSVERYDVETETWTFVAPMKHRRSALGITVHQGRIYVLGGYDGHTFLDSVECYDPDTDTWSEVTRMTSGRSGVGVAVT

Regarding `O=C(O)C1CCCCC1C(=O)N1CCc2ccccc2C1CN1Cc2ccccc2C1=O` (centres unmarked) [lactam], the “Keap1 binding activity (in words)” value in data set [1] was “only slight decrease in Keap1 binding”.

Regarding `O=C(O)[C@H]1CCCC[C@H]1C(=O)N1CCc2ccccc2[C@H]1CN1C(=O)c2ccccc2C1=O` [(SRS)-5], the stability entry in data set [2] is “highly stable”. Besides, in data set [3], the “thiol addition or decomposition” value is listed as “No thiol addition or decomposition could be detected”.

Turning to `COC(=O)C1CCCCC1C(=O)N1CCc2ccccc2C1CN1C(=O)c2ccccc2C1=O` (centres unmarked) [corresponding methyl ester], the “Keap1 binding activity (in words)” value in data set [1] was “completely inactive”.

Consider `NC(=O)C1CCCCC1C(=O)N1CCc2ccccc2C1CN1C(=O)c2ccccc2C1=O` (centres unmarked) [corresponding amide], for which, in data set [1] (relative to (SRS)-5), the “fold less active than (SRS)-5” value was “about 20 fold”.
